Reference: PubChem BioAssay (NCI)
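These data come from cells grown in 96-well plates and exposed to compound for 48 hours at five concentrations. Here, GI50 denotes the concentration required for 50% inhibition of growth. At the TGI there is no net growth.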

How the values were obtained:
Assay in all cases: NCI tumour cell line growth inhibition, 48 h
NCI-H460 lung = system: NCI-H460 lung
HCC-2998 colon = system: HCC-2998 colon
IGROV1 ovarian = system: IGROV1 ovarian
CCRF-CEM leukemia = system: CCRF-CEM leukemia
HOP-62 NSCLC = system: HOP-62 NSCLC
OVCAR-3 ovarian = system: OVCAR-3 ovarian
HCT-116 colon = system: HCT-116 colon
786-0 renal = system: 786-0 renal
MCF7 breast = system: MCF7 breast
DU-145 prostate = system: DU-145 prostate

Structure (SMILES)	GI50 (NCI-H460 lung)	TGI (NCI-H460 lung)	GI50 (HCC-2998 colon)	TGI (HCC-2998 colon)	GI50 (IGROV1 ovarian)	TGI (IGROV1 ovarian)	GI50 (CCRF-CEM leukemia)	TGI (CCRF-CEM leukemia)	GI50 (HOP-62 NSCLC)	TGI (HOP-62 NSCLC)	GI50 (OVCAR-3 ovarian)	TGI (OVCAR-3 ovarian)	GI50 (HCT-116 colon)	TGI (HCT-116 colon)	GI50 (786-0 renal)	TGI (786-0 renal)	GI50 (MCF7 breast)	TGI (MCF7 breast)	GI50 (DU-145 prostate)	TGI (DU-145 prostate)
CN(C)c1ccc(/C=N/n2c(CCCCc3n[nH]c(=S)n3/N=C/c3ccc(N(C)C)cc3)n[nH]c2=S)cc1	> 100 µM	> 100 µM	> 100 µM	> 100 µM	> 100 µM	> 100 µM	> 100 µM	> 100 µM	66.8 µM	> 100 µM	> 100 µM	> 100 µM	> 100 µM	> 100 µM	89.3 µM	> 100 µM	> 100 µM	> 100 µM	> 100 µM	> 100 µM
CCOC(=O)Nc1cc2c(c(N)n1)N=C(c1ccccc1)CN2	< 0.0001 µM	0.485 µM		0.0445 µM	< 0.0001 µM		< 0.0001 µM			18.5 µM	< 0.0001 µM	< 0.0001 µM	< 0.0001 µM		< 0.0001 µM	25.9 µM	0.0232 µM	20.5 µM	< 0.0001 µM	
CCCCCCCCCCCCCC(=O)NO		38.3 µM		28.7 µM		38.3 µM		6.46 µM		34.6 µM		28 µM		> 94.9 µM		18.2 µM		> 100 µM		29.6 µM
O=c1oc2ccc(I)cc2c(=O)n1-c1ccc(I)cc1F	0.429 µM	10.3 µM	2.8 µM	11.1 µM	0.406 µM	20.8 µM	1.89 µM	10.8 µM	2.36 µM	9.46 µM	0.44 µM	9.75 µM	0.472 µM	2.27 µM	2.21 µM	6.49 µM	1.08 µM	11.3 µM	0.684 µM	17.9 µM
CCCCNP1(NCCCC)=NP(NCCCC)(NCCCC)=NP(NCCCC)(NCCCC)=NP(NCCCC)(NCCCC)=N1	0.594 µM	4.25 µM	0.304 µM	3.7 µM	0.584 µM	11.6 µM	0.313 µM	12.3 µM	1.85 µM	6.25 µM	0.243 µM	0.871 µM	0.209 µM	0.81 µM	1.34 µM	5.26 µM	0.356 µM	3.52 µM	0.895 µM	15.2 µM
COc1ccc2[nH]cc(C3(c4c[nH]c5ccc(OC)cc45)C(=O)Nc4ccc(Cl)cc43)c2c1	3.18 µM	10.1 µM	3.26 µM	11.4 µM	3.28 µM	21.2 µM	3.67 µM	> 100 µM	5.18 µM	21.3 µM	2.99 µM	8.5 µM	3.63 µM	10.7 µM	4.43 µM	83.9 µM	3.12 µM	42.8 µM	4.73 µM	29.2 µM
CCCn1cc(/C=N\N=C2\C(=O)Nc3ccc(C)cc32)c2ccccc21	2.17 µM	10.6 µM	2.09 µM	5.14 µM	3.38 µM	63.1 µM	1.94 µM	> 100 µM	4.17 µM	25 µM	1.36 µM	5.11 µM	1.75 µM	4.17 µM	5.94 µM	71.2 µM	1.54 µM	15.5 µM	3.88 µM	40.6 µM
CN(C)C[C@@H]1CCn2cc(c3ccccc32)C2=C(C(=O)NC2=O)c2cn(c3ccccc23)CCO1	1.48 µM	5.73 µM	0.713 µM	> 10 µM	1.3 µM	8.49 µM	0.459 µM	2.73 µM	2.54 µM	> 10 µM	2.65 µM	> 10 µM	0.374 µM	1.56 µM	1.78 µM	3.93 µM	1.74 µM	> 10 µM	2.75 µM	> 10 µM
COc1ccc(C(=O)/C=C/c2c(C(F)(F)F)nc3ccccn23)cc1OC	0.933 µM	2.99 µM	0.553 µM	2.23 µM	0.508 µM	3.41 µM	0.46 µM	22.1 µM	3.38 µM	> 28.4 µM	2.28 µM	6.09 µM	0.561 µM	4.26 µM	2.26 µM	> 100 µM	0.518 µM	> 100 µM	1.3 µM	
